Experimental data reported in BindingDB's records for doi:10.1002/bip.20588 (University of California Davis, 2006).
*1 amine or outer side, *2 acyl side, *3 side chain or, on linkers, in order; H or OH if unused. Where a SMILES comes first, the peptide text is derived from it. [ ]: non-standard residue; d: D form. The star is where a group is joined. ξ: configuration not given here. Pro(5R-Ph) = O=C(O)[C@@H]1CC[C@H](c2ccccc2)N1; X5 = O=C(c1ccc(-c2ccc(N[*:1])cc2)o1)[*:2]; X7 = O=C(c1ccc(-c2cccc(N[*:1])c2)o1)[*:2]; Leu(4,5-dehydro) = C=C(C)C[C@H](N)C(=O)O; X14 = Cc1ccccc1NC(=O)Nc1ccc(N*)cc1; X9 = Cc1ccccc1NC(=O)Nc1cccc(N*)c1; Ala(cPr) = N[C@@H](CC1CC1)C(=O)O; X1 = O=C(Cc1ccc(N[*:1])cc1)[*:2]; Ile(3ξ) = CCC(C)[C@H](N)C(=O)O; NH(2-Me-phenyl) = Cc1ccccc1N*; Tle = CC(C)(C)[C@H](N)C(=O)O; hLeu = CC(C)CC[C@H](N)C(=O)O; Isovaleryl = CC(C)CC(=O)*; 4Abz = Nc1ccc(C(=O)O)cc1; Dpg = CCCC(N)(CCC)C(=O)O; Heptanoyl = CCCCCCC(=O)*; Nle = CCCC[C@H](N)C(=O)O; Dap = NC[C@H](N)C(=O)O; X11 = CC(C)c1ccccc1N*; CO = O=C([*:1])[*:2]

molecular target: Integrin alpha-4/beta-1 (Homo sapiens, UniProt P05556+P13612, T112H); assay: Jurkat Cell Adhesion Inhibition Assay; details: not given
Method: Binding affinities (IC50) of the ligands were studied in a Jurkat cell adhesion assay by inhibiting the alpha-4/beta-1 mediated cell adhesion to CS-1 peptides. The 96-well plates were coated with neutravidin, followed by biotinconjugated CS-1 peptides. Jurkat cells with series dilutions of tested ligands in binding buffer were added and allowed to bind for 30 min. Bound cells were recorded using a 96-well plate reader at 570 nm. IC50 values were calculated from inhibition curves resulting from the concentration-dependent inhibition

| Structure (SMILES) | IC50 [nM] |
| --- | --- |
| CCCC[C@H](NC(=O)c1ccc(NC(=O)Nc2ccccc2C)cc1)C(=O)N[C@@H](CC(=O)O)C(=O)N[C@H](C(=O)N1CCC[C@H]1C(N)=O)C(C)CC (stereo partly drawn) [(3S)-3-{[(2S,3S)-1-[(2S)-2-carbamoylpyrrolidin-1-yl]-3-methyl-1-oxopentan-2-yl]carbamoyl}-3-[(2S)-2-[(4-{[(2-methylphenyl)carbamoyl]amino}phenyl)formamido]hexanamido]propanoic acid] ({NH(2-Me-phenyl)-CO-4Abz}-[Nle]D[Ile(3ξ)]P-NH2) | 3000 |
| CCCC[C@H](NC(=O)Cc1ccc(NC(=O)Nc2ccccc2C(C)C)cc1)C(=O)N[C@@H](CC(=O)O)C(=O)N[C@H](C(=O)N1CCC[C@H]1C(N)=O)C(C)CC (stereo partly drawn) [(3S)-3-{[(2S,3S)-1-[(2S)-2-carbamoylpyrrolidin-1-yl]-3-methyl-1-oxopentan-2-yl]carbamoyl}-3-[(2S)-2-{1-[4-({[2-(propan-2-yl)phenyl]carbamoyl}amino)phenyl]acetamido}hexanamido]propanoic acid] ({X11-CO}-[X1][Nle]D[Ile(3ξ)]P-NH2) | 531 |
| CCCC[C@H](NC(=O)c1ccc(-c2cccc(NC(=O)Nc3ccccc3C)c2)o1)C(=O)N[C@@H](CC(=O)O)C(=O)N[C@H](C(=O)N1CCC[C@H]1C(N)=O)C(C)CC (stereo partly drawn) [(3S)-3-{[(2S,3S)-1-[(2S)-2-carbamoylpyrrolidin-1-yl]-3-methyl-1-oxopentan-2-yl]carbamoyl}-3-[(2S)-2-{[5-(3-{[(2-methylphenyl)carbamoyl]amino}phenyl)furan-2-yl]formamido}hexanamido]propanoic acid] ({NH(2-Me-phenyl)-CO}-[X7][Nle]D[Ile(3ξ)]P-NH2) | 325 |
| CCCC[C@H](NC(=O)c1ccc(-c2ccc(NC(=O)Nc3ccccc3C)cc2)o1)C(=O)N[C@@H](CC(=O)O)C(=O)N[C@H](C(=O)N1CCC[C@H]1C(N)=O)C(C)CC (stereo partly drawn) [(3S)-3-{[(2S,3S)-1-[(2S)-2-carbamoylpyrrolidin-1-yl]-3-methyl-1-oxopentan-2-yl]carbamoyl}-3-[(2S)-2-{[5-(4-{[(2-methylphenyl)carbamoyl]amino}phenyl)furan-2-yl]formamido}hexanamido]propanoic acid] ({NH(2-Me-phenyl)-CO}-[X5][Nle]D[Ile(3ξ)]P-NH2) | 340 |
| CCCC[C@H](NC(=O)Nc1cccc(NC(=O)Nc2ccccc2C)c1)C(=O)N[C@@H](CC(=O)O)C(=O)N[C@H](C(=O)N1CCC[C@H]1C(N)=O)C(C)CC (stereo partly drawn) [(3S)-3-{[(2S,3S)-1-[(2S)-2-carbamoylpyrrolidin-1-yl]-3-methyl-1-oxopentan-2-yl]carbamoyl}-3-[(2S)-2-{[(3-{[(2-methylphenyl)carbamoyl]amino}phenyl)carbamoyl]amino}hexanamido]propanoic acid] ({X9-CO}-[Nle]D[Ile(3ξ)]P-NH2) | 3080 |
| CCCC[C@H](NC(=O)Nc1ccc(NC(=O)Nc2ccccc2C)cc1)C(=O)N[C@@H](CC(=O)O)C(=O)N[C@H](C(=O)N1CCC[C@H]1C(N)=O)C(C)CC (stereo partly drawn) [(3S)-3-{[(2S,3S)-1-[(2S)-2-carbamoylpyrrolidin-1-yl]-3-methyl-1-oxopentan-2-yl]carbamoyl}-3-[(2S)-2-{[(4-{[(2-methylphenyl)carbamoyl]amino}phenyl)carbamoyl]amino}hexanamido]propanoic acid] ({X14-CO}-[Nle]D[Ile(3ξ)]P-NH2) | 54 |
| CCC(C)[C@H](NC(=O)[C@H](CC(=O)O)NC(=O)[C@@H](NC(=O)Cc1ccc(NC(=O)Nc2ccccc2C)cc1)C(C)(C)C)C(=O)N1CCC[C@H]1C(N)=O (stereo partly drawn) [(3S)-3-{[(2S,3S)-1-[(2S)-2-carbamoylpyrrolidin-1-yl]-3-methyl-1-oxopentan-2-yl]carbamoyl}-3-[(2S)-3,3-dimethyl-2-[1-(4-{[(2-methylphenyl)carbamoyl]amino}phenyl)acetamido]butanamido]propanoic acid] ({NH(2-Me-phenyl)-CO}-[X1][Tle]D[Ile(3ξ)]P-NH2) | 7.1 |
| CCC(C)[C@H](NC(=O)[C@H](CC(=O)O)NC(=O)[C@H](CNC(=O)CC(C)C)NC(=O)Cc1ccc(NC(=O)Nc2ccccc2C)cc1)C(=O)N1CCC[C@H]1C(N)=O (stereo partly drawn) [(3S)-3-{[(2S,3S)-1-[(2S)-2-carbamoylpyrrolidin-1-yl]-3-methyl-1-oxopentan-2-yl]carbamoyl}-3-[(2S)-3-(3-methylbutanamido)-2-[1-(4-{[(2-methylphenyl)carbamoyl]amino}phenyl)acetamido]propanamido]propanoic acid] ({NH(2-Me-phenyl)-CO}-[X1][Dap](Isovaleryl)D[Ile(3ξ)]P-NH2) | 63 |
| CCC(C)[C@H](NC(=O)[C@H](CC(=O)O)NC(=O)[C@H](CC1CC1)NC(=O)Cc1ccc(NC(=O)Nc2ccccc2C)cc1)C(=O)N1CCC[C@H]1C(N)=O (stereo partly drawn) [(3S)-3-{[(2S,3S)-1-[(2S)-2-carbamoylpyrrolidin-1-yl]-3-methyl-1-oxopentan-2-yl]carbamoyl}-3-[(2S)-3-cyclopropyl-2-[1-(4-{[(2-methylphenyl)carbamoyl]amino}phenyl)acetamido]propanamido]propanoic acid] ({NH(2-Me-phenyl)-CO}-[X1][Ala(cPr)]D[Ile(3ξ)]P-NH2) | 64 |
| CCCCCCC(=O)NC[C@H](NC(=O)Cc1ccc(NC(=O)Nc2ccccc2C)cc1)C(=O)N[C@@H](CC(=O)O)C(=O)N[C@H](C(=O)N1CCC[C@H]1C(N)=O)C(C)CC (stereo partly drawn) [(3S)-3-{[(2S,3S)-1-[(2S)-2-carbamoylpyrrolidin-1-yl]-3-methyl-1-oxopentan-2-yl]carbamoyl}-3-[(2S)-3-heptanamido-2-[1-(4-{[(2-methylphenyl)carbamoyl]amino}phenyl)acetamido]propanamido]propanoic acid] ({NH(2-Me-phenyl)-CO}-[X1][Dap](Heptanoyl)D[Ile(3ξ)]P-NH2) | 312 |
| C=C(C)C[C@H](NC(=O)Cc1ccc(NC(=O)Nc2ccccc2C)cc1)C(=O)N[C@@H](CC(=O)O)C(=O)N[C@H](C(=O)N1CCC[C@H]1C(N)=O)C(C)CC (stereo partly drawn) [(3S)-3-{[(2S,3S)-1-[(2S)-2-carbamoylpyrrolidin-1-yl]-3-methyl-1-oxopentan-2-yl]carbamoyl}-3-[(2S)-4-methyl-2-[1-(4-{[(2-methylphenyl)carbamoyl]amino}phenyl)acetamido]pent-4-enamido]propanoic acid] ({NH(2-Me-phenyl)-CO}-[X1][Leu(4,5-dehydro)]D[Ile(3ξ)]P-NH2) | 2.8 |
| CCC(C)[C@H](NC(=O)[C@H](CC(=O)O)NC(=O)[C@H](CC(C)C)NC(=O)Cc1ccc(NC(=O)Nc2ccccc2C)cc1)C(=O)N1CCC[C@H]1C(N)=O (stereo partly drawn) [(3S)-3-{[(2S,3S)-1-[(2S)-2-carbamoylpyrrolidin-1-yl]-3-methyl-1-oxopentan-2-yl]carbamoyl}-3-[(2S)-4-methyl-2-[1-(4-{[(2-methylphenyl)carbamoyl]amino}phenyl)acetamido]pentanamido]propanoic acid] ({NH(2-Me-phenyl)-CO}-[X1]LD[Ile(3ξ)]P-NH2) | 1.9 |
| CCC(C)[C@H](NC(=O)[C@H](CC(=O)O)NC(=O)[C@H](CCC(C)C)NC(=O)Cc1ccc(NC(=O)Nc2ccccc2C)cc1)C(=O)N1CCC[C@H]1C(N)=O (stereo partly drawn) [(3S)-3-{[(2S,3S)-1-[(2S)-2-carbamoylpyrrolidin-1-yl]-3-methyl-1-oxopentan-2-yl]carbamoyl}-3-[(2S)-5-methyl-2-[1-(4-{[(2-methylphenyl)carbamoyl]amino}phenyl)acetamido]hexanamido]propanoic acid] ({NH(2-Me-phenyl)-CO}-[X1][hLeu]D[Ile(3ξ)]P-NH2) | 3 |
| CCCC(CCC)(NC(=O)Cc1ccc(NC(=O)Nc2ccccc2C)cc1)C(=O)N[C@@H](CC(=O)O)C(=O)N[C@H](C(=O)N1CCC[C@H]1C(N)=O)C(C)CC (stereo partly drawn) [(3S)-3-{[(2S,3S)-1-[(2S)-2-carbamoylpyrrolidin-1-yl]-3-methyl-1-oxopentan-2-yl]carbamoyl}-3-{2-[1-(4-{[(2-methylphenyl)carbamoyl]amino}phenyl)acetamido]-2-propylpentanamido}propanoic acid] ({NH(2-Me-phenyl)-CO}-[X1][Dpg]D[Ile(3ξ)]P-NH2) | 450 |

same assay, conditions: pH 7.5; 22 °C

| Structure (SMILES) | IC50 [nM] |
| --- | --- |
| CCCC[C@H](NC(=O)Cc1ccc(NC(=O)Nc2ccccc2C)cc1)C(=O)N[C@@H](CC(=O)O)C(=O)N[C@H](C(=O)N1CC(OCc2ccccc2)C[C@H]1C(N)=O)C(C)CC (stereo partly drawn) [(3S)-3-{[(2S,3S)-1-[(2S)-4-(benzyloxy)-2-carbamoylpyrrolidin-1-yl]-3-methyl-1-oxopentan-2-yl]carbamoyl}-3-[(2S)-2-[1-(4-{[(2-methylphenyl)carbamoyl]amino}phenyl)acetamido]hexanamido]propanoic acid] | 5.3 |
| CCCC[C@H](NC(=O)Cc1ccc(NC(=O)Nc2ccccc2C)cc1)C(=O)N[C@@H](CC(=O)O)C(=O)N[C@H](C(=O)N1[C@@H](c2ccccc2)CC[C@H]1C(N)=O)C(C)CC (stereo partly drawn) [(3S)-3-{[(2S,3S)-1-[(2S,5R)-2-carbamoyl-5-phenylpyrrolidin-1-yl]-3-methyl-1-oxopentan-2-yl]carbamoyl}-3-[(2S)-2-[1-(4-{[(2-methylphenyl)carbamoyl]amino}phenyl)acetamido]hexanamido]propanoic acid] ({NH(2-Me-phenyl)-CO}-[X1][Nle]D[Ile(3ξ)][Pro(5R-Ph)]-NH2) | 38 |
| CCCC[C@H](NC(=O)Cc1ccc(NC(=O)Nc2ccccc2C)cc1)C(=O)N[C@@H](CC(=O)O)C(=O)N[C@H](C(=O)N1Cc2ccccc2C[C@@H]1C(N)=O)C(C)CC (stereo partly drawn) [(3S)-3-{[(2S,3S)-1-[(3R)-3-carbamoyl-1,2,3,4-tetrahydroisoquinolin-2-yl]-3-methyl-1-oxopentan-2-yl]carbamoyl}-3-[(2S)-2-[1-(4-{[(2-methylphenyl)carbamoyl]amino}phenyl)acetamido]hexanamido]propanoic acid] | 3.2 |
| CCCC[C@H](NC(=O)Cc1ccc(NC(=O)Nc2ccccc2C)cc1)C(=O)N[C@@H](CC(=O)O)C(=O)N[C@H](C(=O)N1CSC[C@H]1C(N)=O)C(C)CC (stereo partly drawn) [(3S)-3-{[(2S,3S)-1-[(4R)-4-carbamoyl-1,3-thiazolidin-3-yl]-3-methyl-1-oxopentan-2-yl]carbamoyl}-3-[(2S)-2-[1-(4-{[(2-methylphenyl)carbamoyl]amino}phenyl)acetamido]hexanamido]propanoic acid] | 3.1 |
